How the values were obtained:
Assay type in all cases: physicochemical
[1] = Compatibility with cosmetics additives (absence of precipitates and/or severe discolorations); details: 18.75% water
Description: (§1) To 100 parts by weight of a preparation consisting of 18.75% by weight of K sorbate, 31.25% by weight of phenoxyethanol, 31.25% by weight of benzyl alcohol and 18.75% by weight of demineralized water were added, in individual experiments, up to 4 parts by weight of a number of cosmetics additives, and the compatibility was tested (test for absence of precipitates and/or severe discolorations). […] The above-mentioned preparation was incompatible with the antimicrobial active ingredients Vantocil IB (polyhexamethylene biguanide), bronopol and dibromodicyanobutane since in each case the addition of these active ingredients and storage led to severe discoloration of the solution.
as §1, with “of 15%” for “of 18.75%”, “sorbate, 30%” for “sorbate, 31.25%”, “of Na benzoate, 5%” for “of phenoxyethanol, 31.25%”, “of phenoxyethanol” for “of benzyl alcohol”, “and 50%” for “and 18.75%”, “The abovementioned” for “The above-mentioned”
A preparation consisting of 18.75% by weight of K sorbate, 28.75% by weight of benzyl alcohol, 28.75% by weight of phenoxyethanol, 18.75% by weight of demineralized water and 5% by weight of cosmetics additive was prepared.

[2] = as above; details: Example 6B: up to 4 parts additive to 100 parts of 15% K sorbate, 30% Na benzoate, 5% phenoxyethanol, 50% water
[3] = Colour stability, Hazen colour number; details: addition to liquid concentrates, Examples 5D-5F
Description: The Hazen colour number is the number of mg of platinum [as potassium hexachloroplatinate (IV) containing cobalt (II) chloride hexahydrate in a ratio of 1.246:1 dissolved in 1000 ml of aqueous hydrochloric acid] which has virtually the same colour as the sample when the path length is the same.
Improvement in the Colour Stability of the Liquid Concentrates According to the Invention

[4] = Example 6A: up to 4 parts additive to 100 parts of 18.75% K sorbate, 31.25% phenoxyethanol, 31.25% benzyl alcohol
[5] = Example 6C: 5% additive in 18.75% K sorbate, 28.75% benzyl alcohol, 28.75% phenoxyethanol

Compound | compatibility of additive with preparation [1, 4] | compatibility of additive with preparation [2] | compatibility of additive with preparation [1, 5] | effect of additive on colour stability [3]
Cc1cc(C(C)(C)C)c(O)c(C(C)(C)C)c1 [2,6-di-tert-butyl-p-cresol] | sufficiently compatible | sufficiently compatible | – | –
OCCCc1ccccc1 [3-phenyl-1-propanol] | sufficiently compatible | sufficiently compatible | – | –
COc1ccc(O)c(C(C)(C)C)c1 [3-tert-butyl-4-hydroxyanisole] | sufficiently compatible | sufficiently compatible | – | –
Cl/C=C\C[N+]12CN3CN(CN(C3)C1)C2.[Cl-] [Dowicil 200] | – | – | sufficiently compatible | –
CC1(C)C(=O)N(CO)C(=O)N1CO [Glydant XL 1000, 1,3-dimethylol-5,5-dimethylhydantoin] | sufficiently compatible | sufficiently compatible | – | –
O=C1O[C@H]([C@@H](O)CO)C(O)=C1O [ascorbic acid] | sufficiently compatible | sufficiently compatible | – | –
O=[N+]([O-])C(Br)(CO)CO [bronopol] | incompatible | incompatible | – | –
CC(C)(CO)[C@@H](O)C(=O)NCCCO [dexpanthenol] | sufficiently compatible | sufficiently compatible | – | –
N#CCCC(Br)(C#N)CBr (stereo not drawn) [dibromodicyanobutane] | incompatible | incompatible | – | –
CCCCNC(=O)OCC#CI [iodopropynylbutyl carbamate] | sufficiently compatible | sufficiently compatible | – | –
O=C([O-])CC(O)(CC(=O)[O-])C(=O)[O-].[Na+].[Na+].[Na+] [sodium citrate] | – | – | – | significantly improves the colour stability
benzalkonium chloride | sufficiently compatible | sufficiently compatible | – | –

Now from value to compound, other results behind:

compatibility of additive with preparation [1, 4] | compatibility of additive with preparation [2] | compatibility of additive with preparation [1, 5] | Compound | effect of additive on colour stability [3]
sufficiently compatible | sufficiently compatible | – | CCOC(=O)c1ccc(O)cc1 [ethylparaben] | –
sufficiently compatible | sufficiently compatible | – | CC(C)=CCCC(C)=CCCC(C)=CCO [farnesol] | –
– | – | sufficiently compatible | COC(=O)c1ccc(O)cc1 [methylparaben] | –
sufficiently compatible | sufficiently compatible | – | OCCc1ccccc1 [phenethyl alcohol] | –
sufficiently compatible | sufficiently compatible | – | O=C([O-])C(O)c1ccccc1.[K+] (stereo not drawn) [potassium salt of mandelic acid] | –
– | – | sufficiently compatible | CCCOC(=O)c1ccc(O)cc1 [propylparaben] | –
sufficiently compatible | sufficiently compatible | – | O=C1O[C@H]([C@@H](O)CO)C([O-])=C1O.[Na+] [sodium ascorbate] | –
sufficiently compatible | sufficiently compatible | – | vitamin E | –

From US8197833B2, “Liquid concentrate for preserving cosmetics” (Air Liquide Sante (International), priority 1999, dated 2012)
